The target in data set [1] is T1, estrogen receptor (Sus scrofa, UniProt Q29040).
T1 sequence (Q29040 1-595): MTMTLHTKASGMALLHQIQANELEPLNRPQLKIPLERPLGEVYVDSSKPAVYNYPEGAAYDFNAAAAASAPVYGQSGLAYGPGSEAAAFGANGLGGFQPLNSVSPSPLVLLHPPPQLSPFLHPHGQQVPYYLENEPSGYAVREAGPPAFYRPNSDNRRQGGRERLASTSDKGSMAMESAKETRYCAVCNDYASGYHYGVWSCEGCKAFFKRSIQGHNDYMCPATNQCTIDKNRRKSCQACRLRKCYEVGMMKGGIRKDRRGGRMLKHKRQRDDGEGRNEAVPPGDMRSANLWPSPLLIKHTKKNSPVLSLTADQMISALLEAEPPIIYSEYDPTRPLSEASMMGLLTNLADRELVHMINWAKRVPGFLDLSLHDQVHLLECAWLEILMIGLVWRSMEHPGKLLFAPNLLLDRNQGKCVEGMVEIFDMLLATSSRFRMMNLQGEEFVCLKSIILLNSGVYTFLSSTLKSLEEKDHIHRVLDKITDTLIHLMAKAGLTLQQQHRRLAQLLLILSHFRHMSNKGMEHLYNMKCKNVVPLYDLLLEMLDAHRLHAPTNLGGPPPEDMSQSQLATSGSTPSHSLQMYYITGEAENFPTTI
Nature of the data set: biochemical.
Procedure: (§1) Briefly, uteri (90 gm) were obtained from immature domestic swine (15kg) was homogenized in Tris buffer (10 mM, pH 7.4) (1 uterus/180 ml), which contained EDTA (1.5 mM) and sodium Azide (3 mM). The homogenate was centrifuged at 100,000 g for 1 hour at 4 ° C. Uteri cytosol (contains 2% of protein from corresponding uterus tissue) were then pretreated with dextran-coated charcoal as described.^10 Protein concentrations were determined according to the method of Lowry et al.^12

Data set [2] addresses T1, estrogen receptor. The conditions noted are these: for Ki: [^3H]estradiol 5 nM, 4°C.
Procedure: as §1
Data set [3] has as its system MCF7. As to the kind of experiment: Inhibition of MCF7 breast tumor cell growth in vitro (72 hour exposure, MTT tetrazolium dye assay). The format is cell-based, human. Particulars: for RP: relative potency, IC50 ratio between tamoxifen and competitor, tamoxifen = 100. As to the method:
The MCF7 cell line is a human tumor cell line. This cell line was cultured in MEM( (Eagles) media in a 5% C0^2 atmosphere with 10% fetal calf serum that had been washed twice with dextran coated charcoal to reduce endogenous estrogen levels. The media was supplemented with 1 mM sodium pyruvate and 100 µm non-essential amino acids. The cell line was screened routinely for myoplasma contamination using the GenProbe kit (Fisher). Cells were trypsinized and plated at a density of 5,000 cells/well in 96 well microtiter plates and allowed to attach and recover for 24 hours.
The media was removed by aspiration and replaced with filter sterilized drug (concentration from 10-^4 M to […]) in media. The cells were incubated for 72 hours and then stained using the MTT tetrazolium dye assay of Mosmann^36 except that after the media was removed, the blue formazan product was solubilized in 50 µl/well DMSO.

Data set [4] is described as follows: In vivo tissue uptake of ^131I-IMTX (trans) in rat.
Data set [5] can be described thus: In vivo biodistribution of N,N-diethyl-[^18F]fluoromethyltamoxifen in rats. The conditions noted are these: rat, iv; for tissue uptake at 2 h / tissue uptake at 4 h: primed with 60 μg of estradiol for 3 days. As to the method:
Four groups of rats (150-200 gm, N = 4/group) were anesthetized with ketamine (10-15 mg/rat). […]. Tissue uptake of ^18F-tracer was determined at 2 and 4 hours (h). To ascertain whether the ^18 F-tracer uptake was mediated by a receptor-process, one group of rats was given ^18F-tracer without priming with estradiol; and another group of rats was given unlabeled estradiol (30 µg/rat) together with ^18 F-tracer. […]

[6] abbreviates: IC50(M), [^3H]estradiol 5 nM, 4°C.
Where [7] appears, read: IC50(uM), concentration required to decrease bound [^3H]estradiol by 50%, average of three experiments.
Setting [8] is: IC-50 estrogen receptor binding, [^3H]estradiol (5 nM).
[9] abbreviates: Homo sapiens, MCF7, 72 h, Table 6, 72 hour exposure, average of three experiments, read-out: IC50 Dose.
[10] abbreviates: IC50 ratio between tamoxifen and competitor, tamoxifen printed as 1.
[11] abbreviates: Homo sapiens, MCF7, 72 h, read-out: IC50 Dose (µM).
The mark [12] stands for this setting: 2h(BLOCK): coinjected with estradiol (30μg).
Where [13] appears, read: 2h, without prime with estradiol (control).
Where [14] appears, read: Homo sapiens, MCF7, text values b172, read-out: IC50 MCF7 cell inhibition (converted).

The results in this text go back to patent EP0551434B1 (BOARD OF REGENTS THE UNIVERSITY OF TEXAS SYSTEM, priority 1990, dated 1992).

Like-named read-outs stand apart in the source and are kept apart here.

In data set [1], `CCN(CC)CCOc1ccc(/C(=C(/CCCO)c2ccccc2)c2ccccc2)cc1` [III (trans), N,N-diethyl-hydroxymethyltamoxifen] registered a Ki of 3.5 µM. The IC50 in data set [1] (setting [6]) turned out to be 7e-06 M; in data set [1] (setting [7]), 7e-06 M; in data set [1] (setting [8]), 7e-06 M; in data set [3] (setting [9]) it was 22 µM. Also, the RBA in data set [2] was 4. The “RBA*” value in data set [2] stood at 400. Further, the RP in data set [3] (Table 6) came to 50.
On to `CCN(CC)CCOc1ccc(C(=C(CCC[131I])c2ccccc2)c2ccccc2)cc1` (single isomer, unassigned) [^131 I-IMTX (trans)], for which the values for the Uterus/blood ratio in data set [4] (3h), in data set [4] (6h) and in data set [4] (24h) were 1.6, 1.5 and 1.2, respectively. Further, the tissue uptake liver in data set [4] (n=5, 3h) stood at 5.3 ± 0.84 % injected dose per organ; in data set [4] (n=5, 6h) it was 3.0 ± 0.02 % injected dose per organ; in data set [4] (n=5, 24h) it was 1.7 ± 0.21 % injected dose per organ. In addition, the tissue uptake uterus was 0.5 ± 0.04 % injected dose per organ in data set [4] (n=5, 3h) and 0.01 ± 0.001 % injected dose per organ in data set [4] (n=5, 24h).
Take `CCN(CC)CCOc1ccc(/C(=C(\CCCO)c2ccccc2)c2ccccc2)cc1` [III (Cis), N,N-diethyl-hydroxymethyltamoxifen]: the affinity in data set [1] corresponds to a Ki of 5 µM. For the same compound, the IC50 in data set [1] (setting [6]) worked out at 1e-05 M; in data set [1] (setting [7]), 1e-05 M; in data set [1] (setting [8]) it was 1e-05 M; in data set [3] (setting [9]), 16.7 µM. Besides, the RBA in data set [2] is listed as 3. Further, the “RBA*” value in data set [2] is 300. Besides, the RP in data set [3] (Table 6) amounted to 66.
As for `CCN(CC)CCOc1ccc(/C(=C(/CCCCl)c2ccccc2)c2ccccc2)cc1` [Compound XII, 1[4-(2-Diethylaminoethoxy)phenyl]-1,2-diphenyl-5-chloro-1-pentene], the IC50 in data set [1] (setting [8]) is 4e-07 M.
Compound `CCN(CC)CCOc1ccc(/C(=C(/CCCCl)c2ccccc2)c2ccccc2)cc1` [Compound XII (trans), 1[4-(2-Diethylaminoethoxy)phenyl]-1,2-diphenyl-5-chloro-1-pentene] returned an RBA in data set [2] of 75. Further, in data set [3] (Table 6, 72 hour exposure, average of three experiments, read-out: IC50 Dose), the IC50 was 10 µM. The RP in data set [3] (Table 6) was determined as 146.
Turning to `CCN(CC)CCOc1ccc(/C(=C(/CCCBr)c2ccccc2)c2ccccc2)cc1` [Compound XI (trans), 1-[4-(2-Diethylaminoethoxy)phenyl]-1,2-diphenyl-5-bromo-1-entene], the IC50 in data set [1] (setting [7]) was 2e-07 M; in data set [1] (setting [8]), 2e-07 M; in data set [3] (setting [11]) it was 4.9 µM. Also, the RBA in data set [2] (setting [10]) is 150. In addition, the RP in data set [3] (Table 6) was 298.
For the compound `CCN(CC)CCOc1ccc(C(=C(CCC[18F])c2ccccc2)c2ccccc2)cc1` [N,N-DIETHYL-[^18F]FLUOROMETHYLTAMOXIFEN], the tissue uptake at 2 h was found to be 0.033 ± 0.0059 %ID/g in data set [5] (blood, 2h, read-out: BLOOD); 0.653 ± 0.135 %ID/g in data set [5] (bone, 2h, read-out: BONE); 0.917 ± 0.306 %ID/g in data set [5] (intestine, 2h, read-out: INTESTINE); 0.742 ± 0.0756 %ID/g in data set [5] (kidney, 2h, read-out: KIDNEY); 4.54 ± 0.505 %ID/g in data set [5] (liver, 2h, read-out: LIVER); 0.151 ± 0.0203 %ID/g in data set [5] (muscle, 2h, read-out: MUSCLE). For the same compound, in data set [5] (uterus, 2h, read-out: UTERUS), the tissue uptake at 2 h turned out to be 0.426 ± 0.0177 %ID/g. The tissue uptake at 4 h was 0.045 ± 0.0003 %ID/g in data set [5] (blood, read-out: BLOOD); 0.802 ± 0.0556 %ID/g in data set [5] (bone, read-out: BONE); 1.1 ± 0.599 %ID/g in data set [5] (intestine, read-out: INTESTINE); 0.796 ± 0.03 %ID/g in data set [5] (kidney, read-out: KIDNEY); 4.21 ± 0.44 %ID/g in data set [5] (liver, read-out: LIVER); 0.183 ± 0.0015 %ID/g in data set [5] (muscle, read-out: MUSCLE). For the same compound, the tissue uptake at 4 h in data set [5] (uterus, read-out: UTERUS) is 0.4 ± 0.0312 %ID/g. Besides, the BLOOD in data set [5] (setting [12]) is listed as 0.048±0.0066 % OF INJECTED DOSE/GRAM OF TISSUE WEIGHT; in data set [5] (setting [13]) it was 0.033±0.0109 % OF INJECTED DOSE/GRAM OF TISSUE WEIGHT. Besides, the values for the BONE in data set [5] (setting [12]) and in data set [5] (setting [13]) were 0.576±0.1268 % OF INJECTED DOSE/GRAM OF TISSUE WEIGHT and 0.644±0.0656 % OF INJECTED DOSE/GRAM OF TISSUE WEIGHT, respectively. Besides, the INTESTINE in data set [5] (setting [12]) was 0.742±0.458 % OF INJECTED DOSE/GRAM OF TISSUE WEIGHT; in data set [5] (setting [13]) it was 0.504±0.1784 % OF INJECTED DOSE/GRAM OF TISSUE WEIGHT. The KIDNEY is 0.742±0.1451 % OF INJECTED DOSE/GRAM OF TISSUE WEIGHT in data set [5] (setting [12]) and 0.530±0.0752 % OF INJECTED DOSE/GRAM OF TISSUE WEIGHT in data set [5] (setting [13]). Also, the values for the LIVER in data set [5] (setting [12]) and in data set [5] (setting [13]) were 4.451±1.1559 % OF INJECTED DOSE/GRAM OF TISSUE WEIGHT and 3.849±0.4069 % OF INJECTED DOSE/GRAM OF TISSUE WEIGHT, respectively. Besides, the MUSCLE in data set [5] (setting [12]) was 0.145±0.0446 % OF INJECTED DOSE/GRAM OF TISSUE WEIGHT; in data set [5] (setting [13]), 0.109±0.0218 % OF INJECTED DOSE/GRAM OF TISSUE WEIGHT. For the same compound, the UTERUS in data set [5] (setting [12]) is 0.297±0.0356 % OF INJECTED DOSE/GRAM OF TISSUE WEIGHT; in data set [5] (setting [13]), 0.248±0.0535 % OF INJECTED DOSE/GRAM OF TISSUE WEIGHT.
Regarding `CCN(CC)CCOc1ccc(/C(=C(/CCCI)c2ccccc2)c2ccccc2)cc1` [X (trans)], the inhibition constant Ki in data set [1] and in data set [2] was 1 µM in each case. Also, the IC50 in data set [1] (setting [6]) is 2e-06 M; in data set [1] (setting [7]) it was 2e-06 M; in data set [1] (setting [8]) it was 2e-06 M; in data set [3] (setting [9]), 6.3 µM; in data set [3] (setting [14]), 6.3 µM. Moreover, the RBA in data set [2] was found to be 15. For the same compound, in data set [2], the “RBA*” value is on record as 1,500. Moreover, the “fold higher affinity for the estrogen receptor than native tamoxifen” value in data set [2] is recorded as 15 fold. Besides, the RP in data set [3] (Table 6) is 175.
Turning to `CCN(CC)CCOc1ccc(C(=C(CCCBr)c2ccccc2)c2ccccc2)cc1` [Compound XI, 1-[4-(2-Diethylaminoethoxy)phenyl]-1,2-diphenyl-5-bromo-1-entene], the IC50 in data set [1] (IC-50, text value, Example 5) was 2e-07 M; in data set [1] (setting [8]), 2e-07 M.
Consider `CCN(CC)CCOc1ccc(/C(=C(\CCCI)c2ccccc2)c2ccccc2)cc1` [X (cis), N,N-diethyl-iodomethyltamoxifen], for which the Ki in data set [1] and in data set [2] was 1.5 µM in each case. Besides, the IC50 is 3e-06 M in data set [1] (setting [6]); 3e-06 M in data set [1] (setting [7]); 3e-06 M in data set [1] (setting [8]); 2.36 µM in data set [3] (setting [9]); 2.4 µM in data set [3] (setting [14]). In addition, the RBA in data set [2] is recorded as 10. In data set [2], the “RBA*” value is 1,000. In data set [2], the “fold higher affinity for the estrogen receptor than native tamoxifen” value came out at 10 fold. Besides, the RP in data set [3] (Table 6) was determined as 466.
`CCN(CC)CCOc1ccc(/C(=C(\CCCCl)c2ccccc2)c2ccccc2)cc1` [Compound XII (Cis), 1[4-(2-Diethylaminoethoxy)phenyl]-1,2-diphenyl-5-chloro-1-pentene]: the IC50 in data set [1] (setting [7]) and in data set [1] (setting [8]) was 4e-06 M in each case. The compound further registered an RBA in data set [2] of 7.5. The RP in data set [3] (Table 6) came to 335.
For `CCN(CC)CCOc1ccc(/C(=C(\CCCBr)c2ccccc2)c2ccccc2)cc1` [Compound XI (Cis), 1-[4-(2-Diethylaminoethoxy)phenyl]-1,2-diphenyl-5-bromo-1-entene], the IC50 was 8e-07 M in data set [1] (setting [7]), 8e-07 M in data set [1] (setting [8]) and 0.62 µM in data set [3] (setting [11]). The RBA in data set [2] (setting [10]) is 37.5. Besides, in data set [3] (Table 6), the RP worked out at 2355.
